# Test results reported in patent EP1210350B1, “WATER SOLUBLE SDZ-RAD ESTERS” (Wyeth, priority 1999, dated 2001).
# Read-outs that look alike come from different tables or passages of the source.
# Tested on: U87MG Human Glioblastoma (ATCC # HTB-14)
# Assay: 3H thymidine incorporation in U87MG human glioblastoma cells
# Type: cell-based
# Settings: 48 hours incubation with compound, 3H thymidine for the last 5 hours
# Experimental: U87MG Human Glioblastoma (ATCC # HTB-14)
# 3H Thymidine Incorporation Protocol
# • Growth Medium: BRL Minimum Essential Medium with Earle Salts (500 ml) + 5mLBRL MEM Non-Essential Amino Acids (10mM) +5 mLBRL Penicillin-Streptomycin (10000u/ml,10000ug/ml) +5mLBRL Na Pyruvate Solution (100mM) +5mLBRL L-Glutamine 200mM +50mLBRL Fetal Bovine Serum (Qualified) • Assay: • 1. Cells were trypsinized and plated at a concentration of 10^4 cells/well in a final volume of 200 µl growth medium in 96-well flat bottom plates and allowed to adhere for 24 hours at 37°C. • 2. The media was removed by aspiration with care to not disturb the cell monolayer. 200 µl of fresh growth media was added per well, allowing enough wells for samples to be run in triplicate. Compounds were added in 10 µl PBS solutions and incubated for another 48 hours at 37°C. • 3. During the last 5 hours of incubation, plates were labeled with 1µCi 3H thymidine per well. (NEN thymidine, catalog # NET-027, 6.7 Ci/mmole). The 1µCi was added in 10 µl of PBS (on the day of harvest.). The plates were returned to the incubator for the last 5 hours. • 4. The radioactive media was removed by aspiration, with care not to disturb the cell monolayer. 50 µl of BRL 10X Trypsin was added to each well, followed by incubation at 37°C for 10 minutes or until the monolayer was loosened from the well bottom. […] Mats were counted in a Wallac Betaplate counter.
"IC50 (Homo sapiens, U-87 MG, read-out: IC50)",IC50,SMILES
0.5 ng/mL,,CO[C@H]1C[C@@H]2CC[C@@H](C)[C@@](O)(O2)C(=O)C(=O)N2CCCC[C@H]2C(=O)O[C@H]([C@H](C)C[C@@H]2CC[C@@H](O)[C@H](OC)C2)CC(=O)[C@H](C)/C=C(\C)[C@@H](O)[C@@H](OC)C(=O)[C@H](C)C[C@H](C)/C=C/C=C/C=C/1C [Rapamycin]
,2.0 ng/mL,"CO[C@H]1C[C@@H]2CC[C@@H](C)[C@@](O)(O2)C(=O)C(=O)N2CCCC[C@H]2C(=O)O[C@H]([C@H](C)C[C@@H]2CC[C@@H](OCCO)[C@H](OC)C2)CC(=O)[C@H](C)/C=C(\C)[C@@H](O)[C@@H](OC)C(=O)[C@H](C)C[C@H](C)/C=C/C=C/C=C/1C [SDZ-RAD, 40-O-(2-hydroxy)ethyl-rapamycin]"
